{"source": "patent US20260258000A1", "about": "“THYMIDYLATE SYNTHASE INHIBITORS AND USES THEREOF” (University of Florida Research Foundation, Incorporated, priority 2021, published 2026)", "key": {"PANC-1 cells": {"test_system": "PANC-1 cells", "experiment": "Cell viability (MTS) assay, PANC-1", "assay_type": "cell-based", "details": "Homo sapiens; PANC-1, 72 hour drug incubation (FIG. 1C)", "protocol": "(§1) To prepare lysates, 0.5×10^6 PA NC-1 cells were seeded in 100 mm dishes in 10 ml DMEM High glucose and 24 hours later, 5-FU (Sigma) or 19-S were added at the specified concentrations. Cells were harvested after 72 hours and cell pellets were stored at −80° C. For GI50 determination, 3000 MIA PaCa-2 cells. […] After 72 hours, cell viability was assessed by reduction of MTS ((3-4,5-dimethylthiazol-2-yl)-5-(3-carboxymethoxyphenol)-2-(4-sulfophenyl)-2H-tetrazolium) using Cell Titer 96 R Aqueous One Solution Cell Proliferation Assay Kit (Promega), following manufacturer's recommendations. Chemiluminescent output (integration time 1000 ms) was measured on a SpectraMax M3® (Molecular devices). Data were normalized to max/minutes and plotted in GraphPad Prism for GI50 determination. Chemical synthesis details, including characterization of each compound, can be found in the supporting information document associated with this publication."}, "[1]": {"test_system": "TS protein expression in PANC-1 cells", "experiment": "Immunoblot analysis of TS expression in PANC-1 cells", "assay_type": "cell-based", "details": "PANC-1 cells treated 72 hours (FIG. 1D)", "protocol": "as §1, with “Data were normalized to max/minutes and plotted in GraphPad Prism for GI50 determination. Chemical synthesis details, including characterization of each compound, can be found in the supporting information document associated with this publication.” left out\nProtein lysates were generated using RIPA buffer (Santa Cruz) for 20 minutes on ice, followed by 15 minutes centrifugation at 13,000 rpm, at 4° C. […] Protein was quantified using Bradford Assay (BioRad) following manufacturer's recommendations, standard curves were generated with bovine serum albumin (Fisher).\n20 μg of total protein lysate was loaded per lane of 10% Tris Glycine Gel (Invitrogen). […] Signal was detected using West Pico Plus chemiluminescent substrate (Thermo Scientific) following manufacturer's recommendations. […] For protein level quantification relative to loading control, densitometric analysis was performed by ImageJ software."}, "[2]": {"test_system": "Luc-PANC-1 xenograft tumors", "experiment": "Luc-PANC-1 subcutaneous xenograft tumor model", "assay_type": "in vivo, NSG mice", "details": "for median survival: control 54 days", "protocol": "Luc-PANC-1 (5×106) and Luc-CM (0.5×106) cells were resuspended in 200 ul of PBS and injected subcutaneously (SQ) or intraperitonially (IP) to 6-8-week-old NSG mice respectively. Tumor bearing mice were imaged using Xenogen IVIS® Lumina Bioluminescence Imaging System (Perkin Elmer) every week after cell injection. At 4 weeks, animals were randomized based on slope of luciferase signal and treatment was initiated. […] For all animals body weight was recorded weekly and Luc-PANC-1 tumor volume was measured weekly with a caliper. For scheduled sacrifice experiments, animals were euthanized after 4 weeks of treatment. […] Harvested tumors were excised and weighted, and fixed in alcoholic formalin (67.5% Ethanol, 10% Formaldehyde 37%, 22.5% water) for pathology analysis. Tumor volume was calculated as [volume=0.52 (length×width2)].\nFrom this stock, the exact volume needed for daily in vivo delivery was then formulated into 95% corn oil (Mazola) at 2 different concentrations: 1.25 mg/mi (formulation 1) and 3.125 mg/ml (formulation 2). To determine the volume of solution administered to the mice, 200 μl (maximum volume to be delivered in mice via IP or oral gavage) was divided by 25 g of mouse body weight. Therefore, 8 μl of formulation 1 or 2 multiplied by the weight of the mice were used to reach a dose of 10 or 25 mg/kg of body weight, respectively.\nPrior to bioluminescence imaging the region where tumors were located was shaved. Mice were then anesthetized with 2.5% isoflurane in 02 then administered the D-luciferin substrate (150 mg/kg in PBS) by IP injection. Following the injection of the D-luciferin substrate mice were imaged using the Xenogen IVIS® Lumina Bioluminescence Imaging System (Perkin Elmer). The peak of luciferase photon flux was recorded 6 minutes after injection of the D-luciferin substrate. The total photon flux was analyzed and restricted to tumor ROI (region of interest) using Living Image v2.60.1 software (Imaging Systems)."}}, "data": [{"compound": "CCc1nc(N)nc(N)c1-c1ccc(N(C)Cc2ccccc2)c([N+](=O)[O-])c1", "note": "[Compound 19-S]", "values": [{"measurement": "GI50", "setting": "PANC-1 cells", "result": 8.35, "unit": "µM"}, {"measurement": "TS protein expression (steady-state TS levels)", "setting": "[1]", "result": "no increase in steady-state TS levels"}, {"measurement": "median survival", "setting": "[2]; 10 mg/kg PO until survival endpoint", "result": 68, "unit": "days"}, {"measurement": "body weight", "setting": "[2]; 25 mg/kg IP, 4 cycles, vs vehicle", "result": "no significant deviations"}, {"measurement": "final tumor mass", "setting": "[2]; 25 mg/kg IP, 4 cycles, p=0.0029 vs vehicle", "result": "significantly reduced"}, {"measurement": "tumor progression (bioluminescence photon flux, tumor volume)", "setting": "[2]; 25 mg/kg IP, 5 days on/2 days rest, 4 cycles, p=0.0023 flux, p<0.0001 volume vs vehicle", "result": "inhibited tumor progression"}, {"measurement": "median survival", "setting": "[2]; 25 mg/kg PO until survival endpoint", "result": 84, "unit": "days"}, {"measurement": "adverse effects / body weight", "setting": "[2]; 25 mg/kg oral gavage, 4 cycles", "result": "did not show adverse effects or declines in body weight"}, {"measurement": "tumor progression (photon flux, tumor volume, excised tumor mass)", "setting": "[2]; 25 mg/kg oral gavage, 4 cycles (FIGS. 7A-7H)", "result": "inhibited tumor progression"}, {"measurement": "survival compared to vehicle control", "setting": "[2]; 10 or 25 mg/kg PO (either dose), Kaplan-Meier", "result": "statistically significant (p=0.0027) prolonged survival"}, {"measurement": "total flux (bioluminescence)", "setting": "[2]; 10 or 25 mg/kg PO, at 6 weeks after cell injection, vs vehicle", "result": "significant reduction of total flux"}, {"measurement": "tumor volume", "setting": "[2]; 10 or 25 mg/kg PO, p=0.0079, maintained till endpoint", "result": "significant inhibition of tumor volume"}, {"measurement": "body weight", "setting": "[2]; 10 or 25 mg/kg PO, survival study, vs vehicle", "result": "no significant differences"}]}]}
